From patent US9012641B2, “Crystalline forms of Prasugrel salts” (Teva Pharmaceuticals Industries Ltd., priority 2010, dated 2015) come the findings set out here.

The nature of this series: Storage of the sample in an open Petri dish at room conditions, reanalysed on HPLC. The series is classed as physicochemical. The following applies: room conditions (20-25° C., relative humidity 20-30%), 1 month, HPLC purity before storage 99.94%. As for the experimental part: The sample was left in an open Petri dish at room conditions (20-25° C., relative humidity 20-30%) for 1 month and then reanalyzed on HPLC giving purity of 99.84%.

Counter-ions that a name gives are not always drawn.

In the case of `CC(=O)Oc1cc2c(s1)CCN(C(C(=O)C1CC1)c1ccccc1F)C2` (stereo not shown) [form II of prasugrel hydrobromide, Prasugrel hydrobromide], the “HPLC purity after storage” value was determined as 99.84%.
